Reference: patent US20250041461A1, “[177LU] LUTETIUM-PSMA I&T COMPOSITION AND DOSIMETRY, KIT, METHOD OF MAKING, AND METHOD OF USING THEREOF” (Curium US LLC, priority 2023, published 2025)
Where “and” joins values, the source holds several entries; their conditions need not be identical. Equal entries are not always repeated.

Assay: Plasma PK modelling (gamma counting, bi-exponential fit), cycles 1 and 3
Format: in vivo, human
Method: PK plasma samples were collected at pre-Infusion, 1 h, 4 h, 24 h, 48 h, and 168 h, and counted for radioactivity. Blood samples were first centrifuged to extract plasma, and then the radioactivity in plasma was counted in a gamma counter.
Whole blood samples were collected as detailed in the protocol Schedule of Events i.e. pre-injection, and then at 1 h, 4 h, 24 h, 48 h, and 168 h post-injection. The samples were first centrifuged to separate plasma, and the radioactivity in the plasma was then measured using a gamma counter. Plasma concentrations were subsequently fitted with a bi-exponential function to derive outcome parameters such as the half-life and clearance rate of the radiopharmaceutical in the plasma.
Gamma-counted plasma samples were quality controlled using the same ^177Lu reference standard by measuring 0.5 ml of the 100 mL in the saline bag. For each patient, triplicates were made and measured right before all plasma samples were counted. A long-lived isotope was also counted to ensure that the protocol was properly followed by each site. Similarly to the imaging standard, when the gamma counter efficiency factor differed by more than 10% compared to that at site set-up, an investigation was launched to determine the cause of this variation, and if it reflected a difference in data acquisition.
Plasma data was fitted with a bi-exponential curve.
Blood samples were obtained for 15 out of 16 patients at cycle 3. Patients 12-004 had blood taken only at the 24 h timepoint and, therefore, was not included in the plasma PK analysis. Consistent with Cycle 1, the time-course of plasma concentrations was similar among the patients. The ranges of PK parameters obtained at cycle 3 were similar to those from Cycle 1 data (Table 6). Cycle 3 PK plasma modeling results (n=15)

[1] = Cycle 1, patient 42-030 excluded

Which results are given for `O=C([O-])CC[C@H](NC(=O)N[C@@H](CCCCNC(=O)CCCCCCC(=O)NCCCC[C@@H](NC(=O)[C@@H](Cc1ccccc1)NC(=O)[C@@H](Cc1ccc(O)c(I)c1)NC(=O)CC[C@H](C(=O)[O-])N1CCN(CC(=O)[O-])CCN(CC(=O)[O-])CCN(CC(=O)[O-])CC1)C(=O)[O-])C(=O)[O-])C(=O)[O-].[177Lu+3].[H+].[H+].[H+].[H+].[H+]` [^177Lu-PSMA I&T, (3S,7S,26R,29R,32R,37R)-29-benzyl-32-(4-hydroxy-3-iodobenzyl)-5,13,20,28,31,34-hexaoxo-37-(4,7,10-tris(carboxymethyl)-1,4,7,10-tetraazacyclododecan-1-yl)-4,6,12,21,27,30,33-heptaazaheptatriacontane-1,3,7,26,37-pentacarboxylic acid; lutetium-177 (III)]?
Peak Concentration Value (Cycle 1, individual patients): 0.05 fIA/L (4×) and 0.04 fIA/L and 0.03 fIA/L; Time of Peak Concentration (Cycle 1, individual patients, time of first post-administration sample): 56.00 min and 47.00 min and 53.00 min and 60.00 min (6×) and 51.00 min (2×) and 58.00 min and 61.00 min (2×) and 50.00 min and 63.00 min and 57.00 min and 55.00 min and 52.00 min (2×) and 68.00 min and 71.00 min and 65.00 min and 33.00 min and 40.00 min and 69.00 min; AUC Total, Mean [1]: 22.77 fIA/L × min; AUC Total, max [1]: 37.86 fIA/L × min; AUC Total, median [1]: 20.84 fIA/L × min; AUC Total, min [1]: 3.07 fIA/L × min; Peak Concentration Value, Mean [1]: 0.04 fIA/L; Peak Concentration Value, max [1]: 0.07 fIA/L; Peak Concentration Value, median [1]: 0.04 fIA/L; Peak Concentration Value, min [1]: 0.01 fIA/L; Time of Peak Concentration [1]: 33.00 min; Time of Peak Concentration, median [1]: 59.00 min; Vd, Mean [1]: 234.64 L; Vd, max [1]: 1365.03 L; Vd, median [1]: 157.12 L; Vd, min [1]: 54.60 L; Time of Peak Concentration (cycle 3, max (n=15)): 68.00 min; Time of Peak Concentration (cycle 3, median (n=15)): 60.00 min; Time of Peak Concentration (cycle 3, min (n=15)): 55.00 min
